Measured values reported in patent US20060257543A1, “Molecules comprising linked organic moieties as flavor modifiers for comestible compositions” (priority 2005, published 2006).
pEC50: −log10 of the molar value. Read-outs that look alike come from different tables or passages of the source.

How the values were obtained:
[1] = target: T1, hT1R1/hT1R3 umami receptor expressed in an HEK293 cell line (Homo sapiens, UniProt Q7RTX0+Q7RTX1); test: In vitro hT1R1/hT1R3 umami taste receptor activation assay (FLIPR, dose response); assay type: cell-based
T1 construct: expressed in transfected cells; host or cells: HEK293 derivative, clone I-17, expression induced with mifepristone
T1 sequence (Q7RTX1 21-841): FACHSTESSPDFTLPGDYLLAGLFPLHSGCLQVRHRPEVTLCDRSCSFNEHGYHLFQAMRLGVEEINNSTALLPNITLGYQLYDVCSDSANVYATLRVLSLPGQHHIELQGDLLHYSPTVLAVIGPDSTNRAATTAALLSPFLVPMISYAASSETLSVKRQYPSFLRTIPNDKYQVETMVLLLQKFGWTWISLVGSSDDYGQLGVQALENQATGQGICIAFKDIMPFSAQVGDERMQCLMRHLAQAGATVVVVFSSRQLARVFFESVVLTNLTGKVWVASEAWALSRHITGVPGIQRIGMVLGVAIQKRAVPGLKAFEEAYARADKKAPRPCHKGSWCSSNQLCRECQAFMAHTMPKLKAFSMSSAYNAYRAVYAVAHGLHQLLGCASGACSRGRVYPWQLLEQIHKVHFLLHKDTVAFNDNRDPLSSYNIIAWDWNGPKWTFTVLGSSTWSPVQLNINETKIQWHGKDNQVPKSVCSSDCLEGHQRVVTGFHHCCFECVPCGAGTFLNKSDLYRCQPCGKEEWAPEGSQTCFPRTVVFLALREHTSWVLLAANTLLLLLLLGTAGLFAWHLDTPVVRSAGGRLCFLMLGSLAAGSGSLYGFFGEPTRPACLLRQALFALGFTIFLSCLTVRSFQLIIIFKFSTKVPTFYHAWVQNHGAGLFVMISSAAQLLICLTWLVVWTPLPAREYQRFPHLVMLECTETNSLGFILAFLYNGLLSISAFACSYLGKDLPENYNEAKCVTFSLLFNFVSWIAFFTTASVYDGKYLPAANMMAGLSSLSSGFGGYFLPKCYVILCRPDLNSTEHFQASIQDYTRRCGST
T1 sequence (Q7RTX0 21-852): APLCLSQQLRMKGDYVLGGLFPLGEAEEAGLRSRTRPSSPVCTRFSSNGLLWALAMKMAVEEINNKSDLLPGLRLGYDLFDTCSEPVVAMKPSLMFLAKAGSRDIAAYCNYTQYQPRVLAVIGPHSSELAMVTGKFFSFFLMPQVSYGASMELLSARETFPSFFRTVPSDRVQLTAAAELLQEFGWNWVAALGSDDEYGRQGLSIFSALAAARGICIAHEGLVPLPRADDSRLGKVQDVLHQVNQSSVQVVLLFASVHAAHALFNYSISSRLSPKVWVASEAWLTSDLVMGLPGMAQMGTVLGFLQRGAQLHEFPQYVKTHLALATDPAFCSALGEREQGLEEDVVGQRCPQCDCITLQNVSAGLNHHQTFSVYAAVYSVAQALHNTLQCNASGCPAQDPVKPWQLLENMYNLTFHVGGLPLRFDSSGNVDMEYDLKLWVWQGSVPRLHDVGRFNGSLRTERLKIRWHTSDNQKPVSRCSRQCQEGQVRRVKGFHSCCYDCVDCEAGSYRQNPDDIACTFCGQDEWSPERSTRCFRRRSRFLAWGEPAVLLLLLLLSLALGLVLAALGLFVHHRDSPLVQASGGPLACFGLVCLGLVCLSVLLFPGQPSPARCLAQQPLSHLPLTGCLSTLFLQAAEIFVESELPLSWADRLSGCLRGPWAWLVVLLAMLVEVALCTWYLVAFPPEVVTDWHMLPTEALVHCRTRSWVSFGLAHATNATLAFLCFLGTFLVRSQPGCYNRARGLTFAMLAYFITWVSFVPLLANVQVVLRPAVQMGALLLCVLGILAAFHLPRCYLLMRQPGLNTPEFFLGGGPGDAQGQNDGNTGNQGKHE
From the text: In order to identify new savory flavoring agents and enhancers, including compounds with savory agonist and enhancer activities (dual activity), the tastant compounds of Formula (I) were screened in primary assays and secondary assays including compound dose response and enhancement assay. In a primary assay for potential ability to modulate umami taste, tastant compounds of Formula (I) that can be either savory flavoring agents in their own right or flavor enhancers of MSG are identified and scores of their activities are given as percentage of the maximum MSG intensity (%). In compound dose response, an EC50 is calculated to reflect the potency of the compound as a savory agonist or enhancer.
An HEK293 cell line derivative (see e.g., Chandrashekar, et al., Cell (2000) 100: 703-711) which stably expresses Gα15 and hT1R1/hT1R3 under an inducible promoter (see WO 03/001876 A2) was used to identify compounds with savory tasting properties.
Compounds disclosed in this application were initially selected based on their activity on the hT1R1/hT1R3-HEK293-Gα15 cell line. Activity was determined using an automated fluorometric imaging assay on a FLIPR instrument (Fluorometric Intensity Plate Reader, Molecular Devices, Sunnyvale, Calif.) (designated FLIPR assay). Cells from one clone (designated clone I-17) were seeded into 384-well plates (at approximately 48,000 cells per well) in a medium containing Dulbecco's modified Eagle's medium (DMEM) supplemented with GlutaMAX (Invitrogen, Carlsbad, Calif.), 10% dialyzed fetal bovine serum (Invitrogen, Carlsbad, Calif.), 100 Units/ml Penicillin G, 100 μg/ml Streptomycin (Invitrogen, Carlsbad, Calif.) and 60 pM mifepristone (to induce expression of hT1R1/hT1R3, (see WO 03/001876 A2). I-17 cells were grown for 48 hours at 37° C. I-17 cells were then loaded with the calcium dye Fluo-3AM (Molecular Probes, Eugene, Oreg.), 4 μM in a phosphate buffered saline (D-PBS) (Invitrogen, Carlsbad, Calif.), for 1.5 hours at room temperature. After replacement with 25 μl D-PBS, stimulation was performed in the FLIPR instrument and at room temperature by the addition of 25 μl D-PBS supplemented with different stimuli at concentrations corresponding to twice the desired final level. Receptor activity was quantified by determining the maximal fluorescence increases (using a 480 nm excitation and 535 nm emission) after normalization to basal fluorescence intensity measured before stimulation.
(§1) For dose-responses analysis, stimuli were presented in duplicates at 10 different concentrations ranging from 1.5 nM to 30 μM. Activities were normalized to the response obtained with 60 mM monosodium glutamate, a concentration that elicits maximum receptor response. EC50s (concentration of compound that causes 50% activation of receptor) were determined using a non-linear regression algorithm, where the Hill slope, bottom asymptotes and top asymptotes were allow to vary. Identical results were obtained when analyzing the dose-response data using commercially available software for non-linear regression analysis such as GraphPad PRISM (San Diego, Calif.).

[2] = target: T2, hT1R2/hT1R3 sweet receptor expressed in an HEK293 cell line (Homo sapiens, UniProt Q7RTX0+Q8TE23); test: In vitro hT1R2/hT1R3 sweet taste receptor activation assay (FLIPR, dose response); assay type: cell-based
T2 construct: expressed in transfected cells; host or cells: HEK293 derivative, clone S-9
T2 sequence (Q8TE23 20-839): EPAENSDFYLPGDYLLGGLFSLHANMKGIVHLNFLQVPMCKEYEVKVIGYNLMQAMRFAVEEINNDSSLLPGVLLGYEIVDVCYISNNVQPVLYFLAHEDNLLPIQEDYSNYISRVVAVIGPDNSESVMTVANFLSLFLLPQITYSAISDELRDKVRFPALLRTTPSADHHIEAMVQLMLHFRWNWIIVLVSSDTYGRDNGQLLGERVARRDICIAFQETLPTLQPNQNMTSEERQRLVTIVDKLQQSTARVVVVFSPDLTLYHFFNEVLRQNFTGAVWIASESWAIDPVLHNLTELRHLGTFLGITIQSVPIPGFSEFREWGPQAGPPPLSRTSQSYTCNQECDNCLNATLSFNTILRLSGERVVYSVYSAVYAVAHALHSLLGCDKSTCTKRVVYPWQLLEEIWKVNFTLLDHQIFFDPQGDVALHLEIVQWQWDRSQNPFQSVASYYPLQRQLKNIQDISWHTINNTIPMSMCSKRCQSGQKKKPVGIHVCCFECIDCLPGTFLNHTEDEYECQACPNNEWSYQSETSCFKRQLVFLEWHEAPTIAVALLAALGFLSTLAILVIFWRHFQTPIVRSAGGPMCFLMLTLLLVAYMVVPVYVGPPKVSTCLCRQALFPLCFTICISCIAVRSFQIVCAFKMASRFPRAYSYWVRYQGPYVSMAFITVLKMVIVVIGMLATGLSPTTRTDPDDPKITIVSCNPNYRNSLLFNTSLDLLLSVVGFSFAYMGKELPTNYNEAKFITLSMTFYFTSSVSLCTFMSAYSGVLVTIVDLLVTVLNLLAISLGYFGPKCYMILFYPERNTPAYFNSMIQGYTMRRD
T2 sequence (Q7RTX0 21-852): T1 sequence (Q7RTX0 21-852)
From the text: An HEK293 cell line derivative (see Chandrashekar, J., Mueller, K. L., Hoon, M. A., Adler, E., Feng, L., Guo, W., Zuker, C. S., Ryba, N. J.,. Cel,l 2000, 100, 703-711.) that stably expresses Gα15 and hT1R2/hT1R3 (see Li, X., Staszewski, L., Xu, H., Durick, K., Zoller, M., Adler, E. Proc Natl Acad Sci USA 2002, 99, 4692-4696, and PCT Publication No. WO 03/001876) was used to identify compounds with sweet taste enhancing properties. These references are hereby incorporated herein by reference for their methods of preparing and maintaing the cell lines discussed below, and for their methods for screeing compounds that inhibit the biological receptors.
Compounds covered in this document were initially selected based on their activity on the hT1R2/hT1R3—HEK293-Gα15 cell line (Li, et al. vide supra). Activity was determined using an automated fluorometric imaging assay on a FLIPR instrument (Fluorometric Intensity Plate Reader, Molecular Devices, Sunnyvale, Calif.) (designated FLIPR assay). Cells from one clone (designated S-9 cells) were seeded into 384-well plates (at approximately 50,000 cells per well) in a medium containing DMEM Low Glucose (Invitrogen, Carlsbad, Calif.), 10% dialyzed fetal bovine serum (Invitrogen, Carlsbad, Calif.), 100 Units/ml Penicillin G, and 100 μg/ml Streptomycin (Invitrogen, Carlsbad, Calif.) (Li, et al. vide supra) see also World Patent No. WO 03/001876 A2). S-9 cells were grown for 24 hours at 37° C. S-9 cells were then loaded with the calcium dye Fluo-3AM (Molecular Probes, Eugene, Oreg.), 4 μM in a phosphate buffered saline (D-PBS) (Invitrogen, Carlsbad, Calif.), for 1 hour at room temperature. After replacement with 25 μl D-PBS, stimulation was performed in the FLIPR instrument and at room temperature by the addition of 25 μl D-PBS supplemented with different stimuli at concentrations corresponding to twice the desired final level. Receptor activity was quantified by determining the maximal fluorescence increases (using a 480 nm excitation and 535 nm emission) after normalization to basal fluorescence intensity measured before stimulation.
as §1, with “60” for “1.5”, “400” for “60”, “D-fructose,” for “monosodium glutamate,”, “EC50s” for “EC50s (concentration of compound that causes 50% activation of receptor)”, “algorithm (using a Senomyx, Inc. software),” for “algorithm,”

With CCOc1ccc(NC(=S)NCCc2ccccn2)cc1 [Example 2] the pEC50 ([1]; read-out: EC50 for activation of a hT1R1/hT1R3 umami receptor expressed in an HEK293 cell line) was 6.26.

Compound CSc1ccccc1NC(=S)NC1CCCCC1C (stereo not drawn) [Example A15] has a pEC50 ([1]; read-out: Umami EC50) of 5.52.

With COc1ccc(C(=O)CC(SCO)c2ccc(Cl)cc2)cc1 (stereo not drawn) [Example A10] the pEC50 ([1]; read-out: Umami EC50) was 5.22.

With O=C(OCc1ccccn1)c1ccc(COc2cccc3ccccc23)cc1 [Example A22] the pEC50 ([1]; read-out: Umami EC50) was 5.41.

In the case of S=C(NCCc1ccccn1)Nc1ccccc1OCc1ccccc1 [Example A1], the pEC50 ([1]; read-out: Umami EC50) was 5.88.

CCOC(=O)COc1ccc(S(=O)(=O)Nc2ccc3c(c2)OCO3)cc1 [Example A14] gave a pEC50 ([1]; read-out: Umami EC50) of 4.84.

For CC(C)Oc1ccc(NC(=S)NCc2ncc[nH]2)cc1 [Example A21], the pEC50 ([1]; read-out: Umami EC50) was 4.84.

O=S(=O)(NCc1cc(F)cc2c1OCOC2)c1ccc(-c2ccccn2)s1 [Example A23] gave a pEC50 ([1]; read-out: Umami EC50) of 4.99.

Work on CC(C)(C)c1ccc(NC(=S)NCCc2ccccn2)cc1 [Example A3] yielded a pEC50 ([1]; read-out: Umami EC50) of 5.72.

With CCc1ccc(NC(=S)NCCc2ccccn2)cc1 [Example A4] the pEC50 ([1]; read-out: Umami EC50) was 5.86.

Work on CC(C)(C)c1ccc(NC(=S)NCc2ccccn2)cc1 [Example A16] yielded a pEC50 ([1]; read-out: Umami EC50) of 5.43.

In the case of CC1CCCCC1NC(=S)Nc1ccc2c(c1)OCO2 (stereo not drawn) [Example A19], the pEC50 ([1]; read-out: Umami EC50) was 4.87.

Cc1cc(CNC(=S)Nc2ccc(OC(C)C)cc2)no1 [Example A20] was tested, and the pEC50 ([1]; read-out: Umami EC50) was 4.96.

For CCCCC(C)NC(=S)NC1CCCc2ccccc21 (stereo not drawn) [Example A18], the pEC50 ([1]; read-out: Umami EC50) was 5.10.

In the case of COc1ccc(CNc2c(F)cc(F)cc2F)cc1O [Example 15, 2-methoxy-5-((2,4,6-trifluorophenylamino)methyl)phenol], the pEC50 ([2]; read-out: EC50 for activation of a hT1R2/hT1R3 sweet receptor) was 5.63.

With COc1ccc(Cl)cc1S(=O)(=O)NCc1ccco1 [Example B49] the pEC50 ([2]; read-out: Sweet EC50) was 5.10.

Work on CC(C)Nc1ccc(NC(=S)NCc2ccc[nH]2)cc1 [Example B21] yielded a pEC50 ([2]; read-out: Sweet EC50) of 6.20.

CCOc1ccc(NC(=S)NCc2coc(C)c2)cc1 [Example B4] gave a pEC50 ([2]; read-out: Sweet EC50) of 5.84.

In the case of CC(C)Oc1ccc(NC(=S)NCc2nccs2)cc1 [Example B3], the pEC50 ([2]; read-out: Sweet EC50) was 5.86.

In the case of CC(C)Oc1ccc(NC(=S)NCc2cccn2C)cc1 [Example B2], the pEC50 ([2]; read-out: Sweet EC50) was 5.59.

CCCOc1ccc(NC(=S)NCc2ccco2)cc1 [Example B5] showed a pEC50 ([2]; read-out: Sweet EC50) of 5.82.

For CCc1ccc(NC(=S)NCc2ccoc2)cc1 [Example B6], the pEC50 ([2]; read-out: Sweet EC50) was 5.73.

With S=C(NCc1ccc[nH]1)Nc1ccc(N2CCOCC2)cc1 [Example B38] the pEC50 ([2]; read-out: Sweet EC50) was 5.09.

With S=C(NCc1ccc[nH]1)Nc1ccc2c(c1)OCCO2 [Example B17] the pEC50 ([2]; read-out: Sweet EC50) was 6.51.
